Laboratory results: patent publication US12624034B2, “Non-covalent modifiers of AKT1 and uses thereof” (Terremoto Biosciences, Inc., priority 2023, dated 2026)
Where two headings read alike, the source gives them in different places.

Columns and labels:
AKT1 WT = target: T1, AKT1 WT (Homo sapiens, UniProt P31749); assay: Live cell AKT1 WT target engagement by NanoBRET competitive probe displacement in HEK293 cells; assay type: binding; conditions: 2 h at 37° C., read-out: AKT1 WT IC50
T1 construct: expressed in transfected cells; host or cells: HEK293
T1 sequence (P31749 whole entry): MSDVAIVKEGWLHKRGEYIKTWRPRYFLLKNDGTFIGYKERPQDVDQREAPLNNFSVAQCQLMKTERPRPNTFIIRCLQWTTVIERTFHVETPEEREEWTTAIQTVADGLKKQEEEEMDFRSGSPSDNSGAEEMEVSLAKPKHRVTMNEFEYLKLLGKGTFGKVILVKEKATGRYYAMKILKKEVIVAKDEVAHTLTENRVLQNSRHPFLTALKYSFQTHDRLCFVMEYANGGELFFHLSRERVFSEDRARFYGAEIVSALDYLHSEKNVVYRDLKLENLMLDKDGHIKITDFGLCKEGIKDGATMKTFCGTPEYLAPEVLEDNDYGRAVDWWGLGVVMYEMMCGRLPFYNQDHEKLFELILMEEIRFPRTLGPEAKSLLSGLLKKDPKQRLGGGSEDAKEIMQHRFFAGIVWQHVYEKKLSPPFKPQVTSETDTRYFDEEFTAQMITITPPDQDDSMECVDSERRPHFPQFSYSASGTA

AKT2 = target: T2, AKT2 (Homo sapiens, UniProt P31751); assay: Live cell AKT2 target engagement by NanoBRET competitive probe displacement in HEK293 cells; assay type: binding; conditions: 2 h at 37° C., read-out: AKT2 IC50
T2 construct: expressed in transfected cells; host or cells: HEK293
T2 sequence (P31751 whole entry): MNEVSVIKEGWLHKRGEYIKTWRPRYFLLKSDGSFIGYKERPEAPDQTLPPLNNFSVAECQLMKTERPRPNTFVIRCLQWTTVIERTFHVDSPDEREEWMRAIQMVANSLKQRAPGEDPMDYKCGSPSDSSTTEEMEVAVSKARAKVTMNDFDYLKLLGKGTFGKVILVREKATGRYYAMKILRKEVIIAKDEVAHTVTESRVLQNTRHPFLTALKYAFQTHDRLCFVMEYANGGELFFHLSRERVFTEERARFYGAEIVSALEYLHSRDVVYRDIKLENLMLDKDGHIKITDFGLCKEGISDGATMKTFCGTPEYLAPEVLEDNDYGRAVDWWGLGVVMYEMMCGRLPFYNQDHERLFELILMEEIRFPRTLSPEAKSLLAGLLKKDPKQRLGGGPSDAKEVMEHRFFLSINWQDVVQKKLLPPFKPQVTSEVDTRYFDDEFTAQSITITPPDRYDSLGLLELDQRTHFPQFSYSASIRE

[1] = NanoBRET live cell target engagement, HEK293 cells
[2] = NanoBRET competitive probe displacement, live HEK293 cells

| IC50 (AKT1 WT; [1]) | IC50 (AKT2; [1]) | IC50 (AKT1 WT; [2]) | IC50 (AKT2; [2]) | SMILES |
| --- | --- | --- | --- | --- |
| 0.118 µM | > 10 µM | – | – | Nc1ncccc1-c1nc2ccc(-n3nccn3)nc2n1-c1ccc2c(c1)CC[C@@H]2NC(=O)c1cccnc1C(F)F [Compound 107] |
| 0.0321 µM | 0.342 µM | – | – | Nc1ncccc1-c1nc2ccc(-n3cccn3)nc2n1-c1ccc2c(c1)CC[C@@H]2NC(=O)c1cnc2c(c1)CC(=O)N2 [Compound 224] |
| 0.114 µM | 4.74 µM | – | – | Cc1cccnc1C(=O)N[C@H]1CCc2cc(-n3c(-c4cccnc4N)nc4ccc(-n5cccn5)nc43)ccc21 [Compound 184] |
| 0.285 µM | > 10 µM | – | – | Cc1nccnc1C(=O)N[C@H]1CCc2cc(-n3c(-c4cccnc4N)nc4ccc(-c5cnn(C)n5)nc43)ccc21 [Compound 271] |
| 0.00865 µM | 0.0284 µM | – | – | CCc1ccc(C(=O)N[C@H]2CCc3cc(-n4c(-c5cccnc5N)nc5ccc(-n6cccn6)nc54)ccc32)cn1 [Compound 80] |
| 0.00752 µM | 0.0689 µM | – | – | Cc1cc(C(=O)N[C@H]2CCc3cc(-n4c(-c5cccnc5N)nc5ccc(-n6cccn6)nc54)ccc32)sn1 [Compound 375] |
| 0.0696 µM | 1.38 µM | – | – | Nc1ncccc1-c1nc2ccc(-n3cccn3)nc2n1-c1ccc2c(c1)CC[C@@H]2NC(=O)c1ccnn1C(F)F [Compound 170] |
| 0.0146 µM | 0.286 µM | – | – | Cc1ccc(C(=O)N[C@H]2CCc3cc(-n4c(-c5cccnc5N)nc5ccc(-c6nc(C)co6)nc54)ccc32)cn1 [Compound 267] |
| 0.00865 µM | 0.0822 µM | – | – | Nc1ncccc1-c1nc2ccc(-n3cccn3)nc2n1-c1ccc2c(c1)CC[C@@H]2NC(=O)c1ccc(F)c(Cl)c1 [Compound 337] |
| 0.00927 µM | 0.0665 µM | – | – | Nc1ncccc1-c1nc2ccc(-n3cccn3)nc2n1-c1ccc2c(c1)CC[C@@H]2NC(=O)c1ccnc(OC2CC2)c1 [Compound 201] |
| 0.0302 µM | 0.226 µM | – | – | Nc1ncccc1-c1nc2ccc(-n3cccn3)nc2n1-c1ccc2c(c1)CC[C@@H]2NC(=O)c1cc2n(n1)CCC2 [Compound 173] |
| 0.0321 µM | 0.824 µM | – | – | CC#Cc1ncccc1C(=O)N[C@H]1CCc2cc(-n3c(-c4cccnc4N)nc4ccc(-n5cccn5)nc43)ccc21 [Compound 211] |
| 0.00514 µM | 0.0565 µM | – | – | Nc1ncccc1-c1nc2ccc(-n3cccn3)nc2n1-c1ccc2c(c1)CC[C@@H]2NC(=O)c1cnc2cccn2c1 [Compound 291] |
| 0.0136 µM | 0.0501 µM | – | – | Nc1ncccc1-c1nc2ccc(-n3cccn3)nc2n1-c1ccc2c(c1)CC[C@@H]2NC(=O)c1ccc(C(F)(F)F)nc1 [Compound 77] |
| 0.508 µM | > 10 µM | – | – | Cc1ccc2nc(-c3cccnc3N)n(-c3ccc4c(c3)CC[C@@H]4NC(=O)c3ccc(C(F)F)nc3)c2n1 [Compound 146] |
| 0.00671 µM | 0.0423 µM | – | – | Nc1ncccc1-c1nc2ccc(-n3cccn3)nc2n1-c1ccc2c(c1)CC[C@@H]2NC(=O)c1ccc2[nH]ncc2c1 [Compound 193] |
| – | – | 0.0274 µM | 4.08 µM | N#Cc1cc(-n2nccn2)nc2c1nc(-c1cccnc1N)n2-c1ccc2c(c1)CC[C@@H]2NC(=O)c1ccc(C(F)F)nc1 [Compound 548] |
| 0.0247 µM | 0.315 µM | – | – | Nc1ncccc1-c1nc2ccc(-n3cccn3)nc2n1-c1ccc2c(c1)CC[C@@H]2NC(=O)c1cc2ncccn2n1 [Compound 176] |
| – | – | 0.028 µM | 3.77 µM | Nc1ncccc1-c1nc2ccc(C#C[C@H]3CCO3)nc2n1-c1ccc2c(c1)CC[C@@H]2NC(=O)c1ccc(C(F)F)nc1 [Compound 453] |
| – | – | 0.0264 µM | 0.686 µM | CCC#Cc1ccc2nc(-c3cccnc3N)n(-c3ccc4c(c3)CC[C@@H]4NC(=O)c3ccc(C(F)F)nc3)c2n1 [Compound 412] |
| 0.00406 µM | 0.0157 µM | – | – | COc1ccc(C(=O)N[C@H]2CCc3cc(-n4c(-c5cccnc5N)nc5ccc(-n6cccn6)nc54)ccc32)cc1F [Compound 241] |
| 0.0029 µM | 0.0222 µM | – | – | COc1cc(C(=O)N[C@H]2CCc3cc(-n4c(-c5cccnc5N)nc5ccc(-n6cccn6)nc54)ccc32)cnn1 [Compound 377] |
| 0.0363 µM | 0.169 µM | – | – | CN(C)Cc1ccc(C(=O)N[C@H]2CCc3cc(-n4c(-c5cccnc5N)nc5ccc(-n6cccn6)nc54)ccc32)cn1 [Compound 85] |
| 0.0126 µM | 0.126 µM | – | – | Nc1ncccc1-c1nc2ccc(-n3cccn3)nc2n1-c1ccc2c(c1)CC[C@@H]2NC(=O)c1cccnc1F [Compound 127] |

The next lines start with the compound.

| SMILES | IC50 (AKT1 WT; [1]) | IC50 (AKT2; [1]) | IC50 (AKT1 WT; [2]) | IC50 (AKT2; [2]) |
| --- | --- | --- | --- | --- |
| CN1CC(Oc2cc(C(=O)N[C@H]3CCc4cc(-n5c(-c6cccnc6N)nc6ccc(-n7cccn7)nc65)ccc43)ccn2)C1 [Compound 179] | 0.08 µM | 1.27 µM | – | – |
| Nc1ncccc1-c1nc2ccc(-n3cccn3)nc2n1-c1ccc2c(c1)CC[C@@H]2NC1CC2(CCCN(c3ccccn3)C2)C1 (some centres unmarked) [Compound 468] | – | – | 0.0747 µM | 1.96 µM |
| Cc1nc2ncccc2c(=O)n1[C@H]1CCc2cc(-n3c(-c4cccnc4N)nc4ccc(-n5cccn5)nc43)ccc21 [Compound 180] | 0.0918 µM | 1.15 µM | – | – |
| COc1ccn(-c2ccc3nc(-c4cccnc4N)n(-c4ccc5c(c4)CC(F)[C@@H]5NC4CN(C(=O)C5CC5)C4)c3n2)n1 (some centres unmarked) [Compound 493] | – | – | 0.0576 µM | 0.973 µM |
| Nc1ncccc1-c1nc2ccc(-n3cccn3)nc2n1-c1ccc2c(c1)CC[C@@H]2NC1CCN(C(=O)[C@H]2C[C@H]2F)CC1 [Compound 478] | – | – | 0.126 µM | 3.17 µM |
| Cc1ncccc1C(=O)N[C@@H]1c2ccc(-n3c(-c4cccnc4N)nc4ccc(-n5cccn5)nc43)cc2CC1(F)F [Compound 187] | 0.00673 µM | 0.0213 µM | – | – |
| Nc1ncccc1-c1nc2ccc(-n3cccn3)nc2n1-c1ccc2c(c1)CC[C@@H]2N1CCC1 [Compound 87, (S)-3-(3-(1-(azetidin-1-yl)-2,3-dihydro-1H-inden-5-yl)-5-(1H-pyrazol-1-yl)-3H-imidazo[4,5-b]pyridin-2-yl)pyridin-2-amine] | 0.149 µM | 1.9 µM | – | – |
| Nc1ncccc1-c1nc2ccc(-n3cccn3)nc2n1-c1ccc2c(c1)CC[C@@H]2n1cnnc1Cc1ccccc1 [Compound 169, (S)-3-(3-(1-(3-benzyl-4H-1,2,4-triazol-4-yl)-2,3-dihydro-1H-inden-5-yl)-5-(1H-pyrazol-1-yl)-3H-imidazo[4,5-b]pyridin-2-yl)pyridin-2-amine] | 0.012 µM | 0.228 µM | – | – |
| Nc1ncccc1-c1nc2ccc(-n3cccn3)nc2n1-c1ccc2c(c1)CC[C@@H]2NC(=O)c1cc2ccccn2n1 [Compound 175] | 0.013 µM | 0.0797 µM | – | – |
| Nc1ncccc1-c1nc2ccc(-n3ccc(C4COC4)n3)nc2n1-c1ccc2c(c1)CC[C@@H]2NC1CCN(C(=O)C2CC2)CC1 [Compound 597] | – | – | 0.0661 µM | 3.78 µM |
| Nc1ncccc1-c1nc2ccc(-n3cccn3)nc2n1-c1ccc2c(c1)CC[C@@H]2NC1CCN(C(=O)[C@H]2CCO2)CC1 [Compound 425] | – | – | 0.109 µM | 3.09 µM |
| Cn1c(C(=O)N[C@H]2CCc3cc(-n4c(-c5cccnc5N)nc5ccc(-n6nccn6)nc54)ccc32)cnc1C1CC1 [Compound 540] | – | – | 0.107 µM | 3.18 µM |
| CN(CCC1CC1)[C@H]1CCc2cc(-n3c(-c4cccnc4N)nc4ccc(-n5cccn5)nc43)ccc21 [Compound 458] | – | – | 0.0934 µM | 2.8 µM |
| Nc1ncccc1-c1nc2ccc(-n3cccn3)nc2n1-c1ccc2c(c1)CC[C@@H]2NC1CCN(C(=O)C2CC2)C1 (some centres unmarked) [Compound 462] | – | – | 0.225 µM | 2.37 µM |
| O=C(C1CC1)N1CCC(N[C@@H]2c3ccc(-n4c(-c5ccccc5F)nc5ccc(-n6ccc(N7CCOCC7)n6)nc54)cc3CC2F)CC1 (some centres unmarked) [Compound 572] | – | – | 0.0161 µM | 0.945 µM |
| Nc1ncccc1-c1nc2ccc(-n3cccn3)nc2n1-c1ccc2c(c1)CC[C@@H]2NCc1ccnc(OC(F)(F)F)c1 [Compound 305] | 0.0321 µM | 1.16 µM | – | – |
| Nc1ncccc1-c1nc2ccc(-c3ccn(C4CCOCC4)n3)nc2n1-c1ccc2c(c1)CC[C@@H]2NC1CCN(C(=O)C2CC2)CC1 [Compound 555] | – | – | 0.0644 µM | 1.57 µM |
| Nc1ncccc1-c1nc2ccc(-n3cccn3)nc2n1-c1ccc2c(c1)CC[C@@H]2NC(=O)c1ccn(C2CC2)n1 [Compound 215] | 0.0215 µM | 0.381 µM | – | – |
| CN1CC(c2cn([C@H]3CCc4cc(-n5c(-c6cccnc6N)nc6ccc(-n7cccn7)nc65)ccc43)nn2)C1 [Compound 251] | 0.363 µM | 5.81 µM | – | – |
| COc1ccn(-c2ccc3nc(-c4cccnc4N)n(-c4ccc5c(c4)CC[C@@H]5NC4CCN(C(=O)C5CC5)CC4F)c3n2)n1 (single isomer, unassigned) [Compound 514] | – | – | 0.0264 µM | 1.13 µM |
| Cn1ccc(N2CCC(N[C@H]3CCc4cc(-n5c(-c6cccnc6N)nc6ccc(-n7ccc(N8CCC8)n7)nc65)ccc43)CC2)n1 [Compound 596] | – | – | 0.0129 µM | 0.689 µM |
| Nc1ncccc1-c1nc2ccc(-n3cccn3)nc2n1-c1ccc2c(c1)CC[C@@H]2N[C@@H]1CCN(c2ccccc2)C1 [Compound 469] | – | – | 0.0934 µM | 1.13 µM |
| Nc1ncccc1-c1nc2ccc(-n3cccn3)nc2n1-c1ccc2c(c1)CC[C@@H]2NC1Cc2cccnc2C1 (some centres unmarked) [Compound 531] | – | – | 0.0506 µM | 1.28 µM |
| COc1ccn(-c2ccc3nc(-c4cccnc4N)n(-c4ccc5c(c4)CC[C@@H]5NC4CCN(C(=O)C5CC5)CC4F)c3n2)n1 (some centres unmarked) [Compound 513] | – | – | 0.0139 µM | 0.24 µM |
| Nc1ncccc1-c1nc2ccc(-n3ccc(OC(F)F)n3)nc2n1-c1ccc2c(c1)CC[C@@H]2NC1[C@@H]2COC[C@H]1CN(C(=O)C1CC1)C2 (some centres unmarked) [Compound 560] | – | – | 0.249 µM | 2.52 µM |
